Tests used:
BRAF^V600E = BRAF^V600E (Homo sapiens (Human), UniProt P15056, V600E); test: BRAF^V600E enzymatic activity assay (LanthaScreen kinase assay); type: biochemical; conditions: LanthaScreen TR-FRET, ATP 2 μM, 60 minutes, room temperature; read-out: BRAF^V600E Lantha IC50
Description: BRAF^V600E enzymatic activity assay: The BRAF^V600E enzymatic assay was performed using a LanthaScreen kinase assay kit purchased from Life Technologies (Grand Island, N.Y.). The assay was conducted according to the procedure provided in the assay kit. […] The final reaction volume for each reaction was 10 μl. The reaction was stopped by addition of 10 μl of TR-FRET dilution buffer kinase supplemented with kinase quench buffer (10 mM final) and Tb-anti-pMAP2K1 (2 nM final). […] IC50 value was calculated using appropriate programs in GraphPad Prism by plotting the logarithm of the concentration versus percent inhibition.

A375 cells = test: Cell proliferation assay (CellTiter-Glo), A375 cell growth; type: cell-based; conditions: 3-day treatment
Description: Cell proliferation assay: A375, Colo-205, Calu-6, and SW-480 cells were purchased from American Type Culture Collection (USA). All cells were cultured in the recommended medium and serum concentration. Cells were maintained at 37° C. in a humidified atmosphere with 5% CO2. For cell proliferation assay, cells were seeded in 96-well pates at a density of 1,000 to 5,000 cells per well and cultured overnight at 37° C. in a medium supplemented with 5-10% FBS. On the next day, the test articles at various concentrations or vehicle control (1% DMSO) were added into cell culture. After 3-day treatment, the growth of cells was assayed by the CellTiter-Glo® Luminestceaent Cell Viability Assay (Promega). IC50 value was calculated using GraphPad Prism by plotting the logarithm of the concentration versus percent inhibition of cell growth.

Sequence of BRAF^V600E (P15056 whole entry V600E): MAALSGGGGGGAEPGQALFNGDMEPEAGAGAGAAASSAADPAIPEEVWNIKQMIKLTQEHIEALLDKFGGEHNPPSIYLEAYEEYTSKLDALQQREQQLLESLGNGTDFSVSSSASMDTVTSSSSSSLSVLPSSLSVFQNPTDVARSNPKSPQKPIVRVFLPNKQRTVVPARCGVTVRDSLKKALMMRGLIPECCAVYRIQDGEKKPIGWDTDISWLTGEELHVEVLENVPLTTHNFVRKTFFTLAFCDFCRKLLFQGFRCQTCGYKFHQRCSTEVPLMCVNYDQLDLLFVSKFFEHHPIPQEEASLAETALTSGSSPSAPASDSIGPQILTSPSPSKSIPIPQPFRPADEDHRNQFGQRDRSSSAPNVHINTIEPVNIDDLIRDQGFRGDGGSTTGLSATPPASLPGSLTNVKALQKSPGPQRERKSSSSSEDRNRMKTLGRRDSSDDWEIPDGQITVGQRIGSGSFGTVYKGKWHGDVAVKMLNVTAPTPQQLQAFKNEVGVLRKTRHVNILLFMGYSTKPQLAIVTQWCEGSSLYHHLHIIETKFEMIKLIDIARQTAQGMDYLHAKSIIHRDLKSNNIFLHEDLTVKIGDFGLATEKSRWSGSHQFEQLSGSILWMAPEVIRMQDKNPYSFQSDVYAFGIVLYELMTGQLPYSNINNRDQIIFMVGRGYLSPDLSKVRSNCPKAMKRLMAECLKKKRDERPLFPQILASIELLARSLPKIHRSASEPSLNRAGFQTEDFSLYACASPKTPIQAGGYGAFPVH

| SMILES | IC50 (BRAF^V600E) | IC50 (A375 cells; Homo sapiens, A-375, 72 h) | IC50 (A375 cells) |
| --- | --- | --- | --- |
| COC(=O)N[C@@H](C)CNc1nccc(C2=C(c3cccc(NS(=O)(=O)c4c(F)cccc4F)c3F)C(=O)C(C)(C)O2)n1 [Example 2] | 0.097 µM | 0.63 µM |  |
| CC1(C)OC(c2ccnc(NCCC#N)n2)=C(c2cccc(NS(=O)(=O)c3c(F)cccc3F)c2F)C1=O [Example 3] | 0.013 µM | 0.47 µM |  |
| Nc1nccc(C2=C(c3cccc(NS(=O)(=O)c4c(F)cccc4F)c3F)C(=O)C3(CCCC3)O2)n1 [Example 4] |  | 0.51 µM |  |
| CC(C)CC1(C)OC(c2ccnc(N)n2)=C(c2cccc(NS(=O)(=O)c3c(F)cccc3F)c2F)C1=O (stereo not drawn) [Example 5] | 0.092 µM | 2.3 µM |  |
| CC(C)CC1(C)OC(c2ccnc(NCCC#N)n2)=C(c2cccc(NS(=O)(=O)c3c(F)cccc3F)c2F)C1=O (stereo not drawn) [Example 6] | 0.0096 µM | 12 µM |  |
| COC(=O)N[C@@H](C)CNc1nccc(C2=C(c3cccc(NS(=O)(=O)c4c(F)cccc4F)c3F)C(=O)C(C)(CC(C)C)O2)n1 (stereo partly drawn) [Example 7] | 0.027 µM | 0.87 µM |  |
| CC(C)CC1(C)OC(c2ccnc(NCc3nccs3)n2)=C(c2cccc(NS(=O)(=O)c3c(F)cccc3F)c2F)C1=O (stereo not drawn) [Example 8] | 0.26 µM | 27 µM |  |
| CC(C)CC1(C)OC(c2ccnc(NC[C@@H]3CCCN3)n2)=C(c2cccc(NS(=O)(=O)c3c(F)cccc3F)c2F)C1=O (stereo partly drawn) [Example 9] | 2 µM |  |  |
| CC(C)CC1(C)OC(c2ccnc(NCC3CCCO3)n2)=C(c2cccc(NS(=O)(=O)c3c(F)cccc3F)c2F)C1=O (stereo not drawn) [Example 10] | 0.75 µM |  |  |
| CC1(C)OC(c2ccnc(N)n2)=C(c2cc(Cl)cc(NS(=O)(=O)c3c(F)cccc3F)c2F)C1=O [Example 11] |  | 0.018 µM |  |
| CC1(C)OC(c2ccnc(N)n2)=C(c2cc(Cl)cc(NS(=O)(=O)c3cc(F)ccc3F)c2F)C1=O [Example 12] | 0.0006 µM | 0.0014 µM |  |
| CC1(C)OC(c2ccnc(N)n2)=C(c2cc(Cl)cc(NS(=O)(=O)c3ccc(F)cc3F)c2F)C1=O [Example 13] |  | 0.35 µM |  |
| CC1(C)OC(c2ccnc(N)n2)=C(c2cc(Cl)cc(NS(=O)(=O)c3cccc(F)c3)c2F)C1=O [Example 14] | 0.0012 µM | 0.12 µM |  |
| CC1(C)OC(c2ccnc(N)n2)=C(c2cc(Cl)cc(NS(=O)(=O)c3ccccc3F)c2F)C1=O [Example 15] | 0.0025 µM | 0.11 µM |  |
| CCCS(=O)(=O)Nc1cc(Cl)cc(C2=C(c3ccnc(N)n3)OC(C)(CC(C)C)C2=O)c1F (stereo not drawn) [Example 16] | 0.07 µM | 0.25 µM |  |
| Nc1nccc(C2=C(c3cccc(NS(=O)(=O)c4c(F)cccc4F)c3Cl)C(=O)C3(CCCC3)O2)n1 [Example 17] | 0.0037 µM | 0.15 µM |  |
| Nc1nccc(C2=C(c3cc(Cl)cc(NS(=O)(=O)c4c(F)cccc4F)c3Cl)C(=O)C3(CCCC3)O2)n1 [Example 18] | 0.0024 µM | 0.007 µM |  |
| CC(C)CC1(C)OC(c2ccnc(N)n2)=C(c2cc(Cl)cc(NS(=O)(=O)c3c(F)cccc3F)c2F)C1=O (stereo not drawn) [Example 19] | 0.027 µM | 0.041 µM |  |
| CC(C)CC1(C)OC(c2ccnc(NCCC#N)n2)=C(c2cc(Cl)cc(NS(=O)(=O)c3c(F)cccc3F)c2F)C1=O (stereo not drawn) [Example 20] | 0.029 µM | 0.16 µM |  |
| CC1(C)OC(c2ccnc(NCCC#N)n2)=C(c2cc(Cl)cc(NS(=O)(=O)c3c(F)cccc3F)c2F)C1=O [Example 21] | 0.0025 µM | 0.2 µM |  |
| COC(=O)N[C@@H](C)CNc1nccc(C2=C(c3cc(Cl)cc(NS(=O)(=O)c4cc(F)ccc4F)c3F)C(=O)C(C)(C)O2)n1 [Example 22] | 0.05 µM | 0.18 µM |  |
| CC1(C)OC(c2ccnc(NCCC#N)n2)=C(c2cc(Cl)cc(NS(=O)(=O)c3cc(F)ccc3F)c2F)C1=O [Example 23] | 0.013 µM | 0.051 µM |  |
| C[C@H](O)CNc1nccc(C2=C(c3cc(Cl)cc(NS(=O)(=O)c4cc(F)ccc4F)c3F)C(=O)C(C)(C)O2)n1 [Example 24] | 0.024 µM | 0.41 µM |  |
| CC1(C)OC(c2ccnc(NCCO)n2)=C(c2cc(Cl)cc(NS(=O)(=O)c3cc(F)ccc3F)c2F)C1=O [Example 25] | 0.011 µM | 0.16 µM |  |
| COCCNc1nccc(C2=C(c3cc(Cl)cc(NS(=O)(=O)c4cc(F)ccc4F)c3F)C(=O)C(C)(C)O2)n1 [Example 26] | 0.05 µM | 0.26 µM |  |
| CCNc1nccc(C2=C(c3cc(Cl)cc(NS(=O)(=O)c4cc(F)ccc4F)c3F)C(=O)C(C)(C)O2)n1 [Example 27] | 0.0028 µM | 0.32 µM |  |
| Nc1nccc(C2=C(c3cc(Cl)cc(NS(=O)(=O)c4cc(F)ccc4F)c3F)C(=O)C3(CCCC3)O2)n1 [Example 28] | 0.0026 µM |  | 0.011 µM |
| Nc1nccc(C2=C(c3cc(Cl)cc(NS(=O)(=O)c4c(F)cccc4F)c3F)C(=O)C3(CCCC3)O2)n1 [Example 29] | 0.0013 µM |  | 0.018 µM |
